SMILES strings stand for the structures. The source made the active and inactive calls. No rule for the calls is given here.

This series concerns CCRIS mutagenicity, Ames/micronucleus/aberration tests. Description: CCRIS mutagenicity studies.
Where [1] appears, read: Test System: AMES SALMONELLA TYPHIMURIUM, Strain/Indicator: TA100, Metabolic Activation: NONE, Method: PREINCUBATION

As for `COc1ccc(-c2noc(CC(=O)O)c2-c2ccc(OC)cc2)cc1`, the mutagenic call reads like this: (Test System: AMES SALMONELLA TYPHIMURIUM, Strain/Indicator: TA98, Metabolic Activation: NONE, Method: PREINCUBATION) “inactive; negative”; (Test System: AMES SALMONELLA TYPHIMURIUM, Strain/Indicator: TA98, Metabolic Activation: RAT, LIVER, S-9, PHENOBARBITAL AND 5,6-BENZOFLAVONE, Method: PREINCUBATION) “inactive; negative”; under setting [1], “inactive; negative”; (Test System: AMES SALMONELLA TYPHIMURIUM, Strain/Indicator: TA100, Metabolic Activation: RAT, LIVER, S-9, PHENOBARBITAL AND 5,6-BENZOFLAVONE, Method: PREINCUBATION) “inactive; negative”; (Test System: AMES SALMONELLA TYPHIMURIUM, Strain/Indicator: TA1535, Metabolic Activation: NONE, Method: PREINCUBATION) “inactive; negative”; (Test System: AMES SALMONELLA TYPHIMURIUM, Strain/Indicator: TA1535, Metabolic Activation: RAT, LIVER, S-9, PHENOBARBITAL AND 5,6-BENZOFLAVONE, Method: PREINCUBATION) “inactive; negative”. Further, the mutagenic call was “inactive; negative” (Test System: AMES SALMONELLA TYPHIMURIUM, Strain/Indicator: TA1537, Metabolic Activation: NONE, Method: PREINCUBATION); “inactive; negative” (Test System: AMES SALMONELLA TYPHIMURIUM, Strain/Indicator: TA1537, Metabolic Activation: RAT, LIVER, S-9, PHENOBARBITAL AND 5,6-BENZOFLAVONE, Method: PREINCUBATION); “inactive; negative” (Test System: E. COLI, Strain/Indicator: WP2 UVRA, Metabolic Activation: NONE, Method: PREINCUBATION); “inactive; negative” (Test System: E. COLI, Strain/Indicator: WP2 UVRA, Metabolic Activation: RAT, LIVER, S-9, PHENOBARBITAL AND 5,6-BENZOFLAVONE, Method: PREINCUBATION).
Turning to `O=C(c1ccccc1)C1OC1c1ccc(-c2ccccc2)cc1` (stereo not given), the mutagenic call was “inactive; negative” (Test System: AMES SALMONELLA TYPHIMURIUM, Strain/Indicator: TA98, Metabolic Activation: NONE, Method: STANDARD PLATE); “inactive; negative” (Test System: AMES SALMONELLA TYPHIMURIUM, Strain/Indicator: TA98, Metabolic Activation: RAT, LIVER, S-9, AROCLOR 1254, Method: STANDARD PLATE); “inactive; negative” (Test System: AMES SALMONELLA TYPHIMURIUM, Strain/Indicator: TA100, Metabolic Activation: NONE, Method: STANDARD PLATE); “inactive; negative” (Test System: AMES SALMONELLA TYPHIMURIUM, Strain/Indicator: TA100, Metabolic Activation: RAT, LIVER, S-9, AROCLOR 1254, Method: STANDARD PLATE).
For `CC(O)CN(CC(C)O)N=O` (stereo not given), the mutagenic call was “inactive; negative” (Test System: AMES SALMONELLA TYPHIMURIUM, Strain/Indicator: TA100, Metabolic Activation: HAMSTER, LIVER, S-9, 3-METHYLCHOLANTHRENE, Method: PREINCUBATION); “active; positive” (Test System: AMES SALMONELLA TYPHIMURIUM, Strain/Indicator: TA100, Metabolic Activation: HAMSTER, LIVER, S-9, PHENOBARBITAL, Method: PREINCUBATION); “inactive; negative” (Test System: AMES SALMONELLA TYPHIMURIUM, Strain/Indicator: TA100, Metabolic Activation: HAMSTER, LIVER, S-9, Method: PREINCUBATION); “inactive; negative” (Test System: AMES SALMONELLA TYPHIMURIUM, Strain/Indicator: TA100, Metabolic Activation: HUMAN, LIVER, S-9, Method: PREINCUBATION); “inactive; negative” (Test System: AMES SALMONELLA TYPHIMURIUM, Strain/Indicator: TA100, Metabolic Activation: MONKEY, LIVER, S-9, Method: PREINCUBATION); “inactive; negative” (Test System: AMES SALMONELLA TYPHIMURIUM, Strain/Indicator: TA100, Metabolic Activation: MOUSE, LIVER, S-9, 3-METHYLCHOLANTHRENE, Method: PREINCUBATION). For the same compound, the mutagenic call is, setting by setting: (Test System: AMES SALMONELLA TYPHIMURIUM, Strain/Indicator: TA100, Metabolic Activation: MOUSE, LIVER, S-9, PHENOBARBITAL, Method: PREINCUBATION) “active; positive”; (Test System: AMES SALMONELLA TYPHIMURIUM, Strain/Indicator: TA100, Metabolic Activation: MOUSE, LIVER, S-9, Method: PREINCUBATION) “inactive; negative”; under setting [1], “inactive; negative”; (Test System: AMES SALMONELLA TYPHIMURIUM, Strain/Indicator: TA100, Metabolic Activation: RABBIT, LIVER, S-9, Method: PREINCUBATION) “inactive; negative”; (Test System: AMES SALMONELLA TYPHIMURIUM, Strain/Indicator: TA100, Metabolic Activation: RAT, LIVER, CYTOSOL, PCB, Method: PREINCUBATION) “inactive; negative”; (Test System: AMES SALMONELLA TYPHIMURIUM, Strain/Indicator: TA100, Metabolic Activation: RAT, LIVER, MICROSOMES AND CYTOSOL, PCB, Method: PREINCUBATION) “active; positive”. Also, the mutagenic call runs as follows: (Test System: AMES SALMONELLA TYPHIMURIUM, Strain/Indicator: TA100, Metabolic Activation: RAT, LIVER, MICROSOMES AND G6PDH, PCB, Method: PREINCUBATION) “active; positive”; (Test System: AMES SALMONELLA TYPHIMURIUM, Strain/Indicator: TA100, Metabolic Activation: RAT, LIVER, MICROSOMES, PCB, Method: PREINCUBATION) “inactive; negative”; (Test System: AMES SALMONELLA TYPHIMURIUM, Strain/Indicator: TA100, Metabolic Activation: RAT, LIVER, S-9 (HEATED), PCB, Method: PREINCUBATION) “inactive; negative”; (Test System: AMES SALMONELLA TYPHIMURIUM, Strain/Indicator: TA100, Metabolic Activation: RAT, LIVER, S-9 (WITHOUT NADP+), PCB, Method: PREINCUBATION) “inactive; negative”; (Test System: AMES SALMONELLA TYPHIMURIUM, Strain/Indicator: TA100, Metabolic Activation: RAT, LIVER, S-9, 3-METHYLCHOLANTHRENE, Method: PREINCUBATION) “inactive; negative”; (Test System: AMES SALMONELLA TYPHIMURIUM, Strain/Indicator: TA100, Metabolic Activation: RAT, LIVER, S-9, AROCLOR 1254, Method: PREINCUBATION) “active; positive”. In addition, the mutagenic call (Test System: AMES SALMONELLA TYPHIMURIUM, Strain/Indicator: TA100, Metabolic Activation: RAT, LIVER, S-9, PCB, Method: PREINCUBATION) was “active; positive”; the mutagenic call (Test System: AMES SALMONELLA TYPHIMURIUM, Strain/Indicator: TA100, Metabolic Activation: RAT, LIVER, S-9, PHENOBARBITAL, Method: PREINCUBATION) was “active; positive”; the mutagenic call (Test System: AMES SALMONELLA TYPHIMURIUM, Strain/Indicator: TA100, Metabolic Activation: RAT, LIVER, S-9, Method: PREINCUBATION) is “inactive; negative”; the mutagenic call (Test System: AMES SALMONELLA TYPHIMURIUM, Strain/Indicator: TA100, Method: PREINCUBATION) was “active; positive”; the mutagenic call (Test System: AMES SALMONELLA TYPHIMURIUM, Strain/Indicator: TA104, Metabolic Activation: RAT, LIVER, S-9, AROCLOR 1254, Method: PREINCUBATION) was “inactive; negative”; the mutagenic call (Test System: AMES SALMONELLA TYPHIMURIUM, Strain/Indicator: TA1535, Metabolic Activation: RAT, LIVER, S-9, AROCLOR 1254, Method: PREINCUBATION) is “active; positive”. Moreover, the mutagenic call is “active; positive” (Test System: AMES SALMONELLA TYPHIMURIUM, Strain/Indicator: TA1975, Metabolic Activation: RAT, LIVER, S-9, AROCLOR 1254, Method: PREINCUBATION) and “active; positive” (Test System: CHINESE HAMSTER V-79, Strain/Indicator: V-79/OUABAIN, Metabolic Activation: HAMSTER, HEPATOCYTES, Method: CELL-MEDIATED).

(Values after PubChem BioAssay AID1259407 (Chemical Carcinogenesis Research Information System (CCRIS), 2018).)
